Laboratory results published in US10087212B2, “Crystal form of Abiraterone propionate and preparation method therefor” (CHONGQING PHARMACEUTICAL RESEARCH INSTITUTE CO., LTD, priority 2015, dated 2018).

Assay: Stability test of crystal forms (40±2° C., RH 75±5%, 3 months)
Format: physicochemical
Conditions: for Crystal appearance / Melting point / Purity / Specific optical rotation: stability test
Description: The crystal forms obtained in Examples 2 to 4 were placed under an environment having a temperature of 40±2° C. and a humidity of RH 75±5% for 3 months. The melting point, specific optical rotation, purity and crystal appearance were measured on 0 day, 1-month, 2-month and 3-month, respectively.

[1] = 3 months, conclusion from Table 2

Compound | Crystal appearance (0 month) | Melting point (0 month) | Purity (0 month) | Specific optical rotation (0 month) | Crystal appearance (1 month) | Melting point (1 month) | Purity (1 month) | Specific optical rotation (1 month) | Crystal appearance (2 months) | Melting point (2 months) | Purity (2 months) | Specific optical rotation (2 months) | Crystal appearance (3 months) | Melting point (3 months) | Purity (3 months) | Specific optical rotation (3 months) | Crystal transformation [1] | Stability [1]
CCC(=O)O[C@H]1CC[C@@]2(C)C(=CC[C@@H]3[C@@H]2CC[C@]2(C)C(c4cccnc4)=CC[C@@H]32)C1 [Example 2, (3β)-17-(3-pyridyl)-androstane-5,16-dien-3-ol propionate] | No change | 109.5~110.4 °C | 99.88 | −44.32° | No change | 109.4~110.3 °C | 99.86 | −44.06° | No change | 109.4~110.5 °C | 99.82 | −43.67° | No change | 109.8~110.5 °C | 99.81 | −44.23° |  | 
CCC(=O)O[C@H]1CC[C@@]2(C)C(=CC[C@@H]3[C@@H]2CC[C@]2(C)C(c4cccnc4)=CC[C@@H]32)C1 [Example 3, (3β)-17-(3-pyridyl)-androstane-5,16-dien-3-ol propionate] | No change | 109.7~110.6 °C | 99.89 | −44.34° | No change | 109.4~110.4 °C | 99.87 | −44.21° | No change | 109.5~110.0 °C | 99.84 | −44.05° | No change | 109.8~110.6 °C | 99.82 | −43.99° |  | 
CCC(=O)O[C@H]1CC[C@@]2(C)C(=CC[C@@H]3[C@@H]2CC[C@]2(C)C(c4cccnc4)=CC[C@@H]32)C1 [Example 4, (3β)-17-(3-pyridyl)-androstane-5,16-dien-3-ol propionate] | No change | 109.6~110.5 °C | 99.86 | −44.46° | No change | 109.4~110.4 °C | 99.83 | −44.13° | No change | 109.5~110.7 °C | 99.81 | −44.08° | No change | 109.7~110.6 °C | 99.79 | −43.92° |  | 
CCC(=O)O[C@H]1CC[C@@]2(C)C(=CC[C@@H]3[C@@H]2CC[C@]2(C)C(c4cccnc4)=CC[C@@H]32)C1 [crystal form of Abiraterone propionate, (3β)-17-(3-pyridyl)-androstane-5,16-dien-3-ol propionate] |  |  |  |  |  |  |  |  |  |  |  |  |  |  |  |  | no crystal transformation occurred | good stability
